Columns and labels:
[1] = biological target: T1, Capsid scaffolding protein (Human herpesvirus 2 (strain HG52) (HHV-2) (Human herpes simplex virus2), UniProt P89449); test: Inhibitory activity against herpes simplex virus protease (HSV-2); assay type: functional, Human alphaherpesvirus 2
T1 sequence (P89449 whole entry): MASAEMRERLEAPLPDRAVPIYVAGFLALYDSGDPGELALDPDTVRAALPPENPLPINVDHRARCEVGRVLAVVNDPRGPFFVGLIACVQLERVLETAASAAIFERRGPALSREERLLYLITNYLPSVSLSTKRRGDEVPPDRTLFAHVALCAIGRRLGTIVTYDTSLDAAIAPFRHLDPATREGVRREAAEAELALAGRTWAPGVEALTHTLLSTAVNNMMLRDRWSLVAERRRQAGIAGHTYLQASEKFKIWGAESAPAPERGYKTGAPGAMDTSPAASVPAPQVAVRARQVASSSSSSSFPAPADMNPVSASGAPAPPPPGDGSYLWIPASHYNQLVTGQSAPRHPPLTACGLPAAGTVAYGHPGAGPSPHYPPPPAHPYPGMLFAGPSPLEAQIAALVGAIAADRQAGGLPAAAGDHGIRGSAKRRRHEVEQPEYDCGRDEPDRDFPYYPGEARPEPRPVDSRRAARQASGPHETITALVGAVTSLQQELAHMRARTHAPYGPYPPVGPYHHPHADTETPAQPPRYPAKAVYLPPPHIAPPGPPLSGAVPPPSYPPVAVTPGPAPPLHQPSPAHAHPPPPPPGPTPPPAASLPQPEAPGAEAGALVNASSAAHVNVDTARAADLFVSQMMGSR

[2] = biological target: T2, Capsid scaffolding protein (Human cytomegalovirus (strain AD169) (HHV-5) (Human herpesvirus 5), UniProt P16753); test: Inhibitory activity against cytomegalovirus protease (CMV); assay type: functional
T2 sequence (P16753 whole entry): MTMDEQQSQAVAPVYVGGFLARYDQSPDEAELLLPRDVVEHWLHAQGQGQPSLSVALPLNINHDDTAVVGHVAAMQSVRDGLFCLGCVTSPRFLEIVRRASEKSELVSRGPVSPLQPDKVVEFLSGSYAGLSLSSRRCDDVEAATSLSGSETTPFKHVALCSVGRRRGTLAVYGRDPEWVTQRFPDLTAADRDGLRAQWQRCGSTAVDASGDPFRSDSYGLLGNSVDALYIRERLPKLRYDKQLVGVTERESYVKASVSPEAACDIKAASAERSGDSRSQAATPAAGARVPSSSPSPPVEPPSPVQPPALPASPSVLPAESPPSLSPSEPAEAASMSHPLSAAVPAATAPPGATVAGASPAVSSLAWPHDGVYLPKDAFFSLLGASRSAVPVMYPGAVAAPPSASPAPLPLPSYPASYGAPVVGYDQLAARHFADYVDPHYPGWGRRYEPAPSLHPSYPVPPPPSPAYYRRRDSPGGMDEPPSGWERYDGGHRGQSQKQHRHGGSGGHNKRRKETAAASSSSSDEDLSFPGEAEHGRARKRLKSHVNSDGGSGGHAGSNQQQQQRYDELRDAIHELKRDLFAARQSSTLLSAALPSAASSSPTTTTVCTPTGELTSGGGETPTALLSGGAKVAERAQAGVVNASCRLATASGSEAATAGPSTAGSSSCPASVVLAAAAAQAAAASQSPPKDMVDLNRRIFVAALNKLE

MRC5 = test: Compound was tested for cytotoxicity in MRC-5 cells using XTT assay; assay type: functional; conditions: Homo sapiens, read-out: TC50 (the source's name)

Compound	IC50 [1]	IC50 [2]	CC50 (MRC5)
Cc1csc2nc([C@H](C)NC(=O)/C=C/C(=O)c3ccc(Cl)cc3)oc(=O)c12	15000 nM	60 nM	
Cc1csc2nc([C@H](C)NC(=O)/C=C/C(=O)Nc3ccccc3)oc(=O)c12	2600 nM	2300 nM	
COc1cccc(C(=O)/C=C/C(=O)N[C@@H](C)c2nc3scc(C)c3c(=O)o2)c1	680 nM	29 nM	
CCOc1ccc(C(=O)/C=C/C(=O)N[C@@H](C)c2nc3scc(C)c3c(=O)o2)cc1	16000 nM	260 nM	
Cc1csc2nc([C@H](C)NC(=O)/C=C/C(=O)c3cccc(C#N)c3)oc(=O)c12	2000 nM	41 nM	
Cc1csc2nc([C@H](C)NC(=O)/C=C/C(=O)c3cccs3)oc(=O)c12	4600 nM	29 nM	2000 nM
Cc1csc2nc([C@H](C)NC(=O)CCC(=O)c3ccccc3)oc(=O)c12	12000 nM	21000 nM	
Cc1csc2nc([C@H](C)NC(=O)/C=C/C(=O)c3cccc([N+](=O)[O-])c3)oc(=O)c12	3000 nM	31 nM	
Cc1csc2nc([C@H](C)NC(=O)/C=C/C(=O)c3ccccc3[N+](=O)[O-])oc(=O)c12	2200 nM	14 nM	
Cc1csc2nc([C@H](C)NC(=O)/C=C/C(=O)c3ccccc3)oc(=O)c12	2700 nM	30 nM	14000 nM
Cc1csc2nc([C@H](C)NC(=O)CCC(=O)c3cccs3)oc(=O)c12	4700 nM	19000 nM	
CC(=O)/C=C/C(=O)N[C@@H](C)c1nc2scc(C)c2c(=O)o1	790 nM	370 nM	11000 nM
